Test results from patent US11578087B2, “Oxaborole esters and uses thereof” (priority 2016, dated 2023).

Assays:
[1] = tested on: T. cruzi amastigote (Td Tomato-modified) in Vero cells; experiment: In vitro IC50 measurement of T. cruzi amastigote killing using Td Tomato-modified T. cruzi; type: cell-based; details: Trypanosoma cruzi, 72 h, fluorescence, read-out: IC50: I Org. amastigote Growth T. cruzi 3 d
Procedure, shortened: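 IC50/IC90 came from nonlinear regression of Day 3 minus Day 0 fluorescence (544/612 nm), correcting for input parasites. Final compound concentrations spanned 5 nM–5 uM on Td Tomato T. cruzi-infected Vero cells, 72 h at 37 °C.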

[2] = tested on: IL3000 T. congolense (drug sensitive) strain; experiment: In vitro Alamar Blue 72 h drug sensitivity assay for T. congolense; type: cell-based, Trypanosoma congolense; details: Trypanosoma congolense, 72 h, bloodstream form, 69 h + 3 h Resazurin, 34° C., read-out: IC50: I Org. Growth T. congolense 3 d
Procedure, shortened: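 IC50 values derive from 11-point curves averaged over at least three independent runs, with fluorescence read at 536 nm excitation and 588 nm emission. Resazurin was added for a final 3 h after 69 h compound exposure of bloodstream forms (HMI medium, 20% bovine serum, 34° C, 5% CO2).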

Row | SMILES | IC50 [1] | IC50 [2]
1 | Cc1c(C(=O)N[C@H](C(=O)OCc2ccc(F)cc2)C(C)(C)O)ccc2c1B(O)OC2 [Example 6-169, 4-Fluorobenzyl (S)-3-hydroxy-2-(1-hydroxy-7-methyl-1,3-dihydrobenzo[c][1,2]oxaborole-6-carboxamido)-3-methylbutanoate] | ≤ 0.02 µM | < 0.0005 µM
2 | Cc1c(C(=O)N[C@H](C(=O)OCC2CCOCC2)C(C)C)ccc2c1B(O)OC2 [Example 6-172, (tetrahydro-2H-pyran-4-yl)methyl (1-hydroxy-7-methyl-1,3-dihydrobenzo[c][1,2]oxaborole-6-carbonyl)-L-valinate] | ≤ 0.02 µM | < 0.0005 µM
3 | Cc1c(C(=O)N[C@H](C(=O)OCCN2CCOC2=O)C(C)C)ccc2c1B(O)OC2 [Example 6-216, 2-(2-oxooxazolidin-3-yl)ethyl (1-hydroxy-7-methyl-1,3-dihydrobenzo[c][1,2]oxaborole-6-carbonyl)-L-valinate] | ≥ 1 µM | 0.01 to 5 µM
4 | Cc1c(C(=O)N[C@H](C(=O)OCC2COC2)C(C)C)ccc2c1B(O)OC2 [Example 6-150, Oxetan-3-ylmethyl (1-hydroxy-7-methyl-1,3-dihydrobenzo[c][1,2]oxaborole-6-carbonyl)-L-valinate] | 0.021 to 0.999 µM | 0.00051 to 0.00999 µM
5 | Cc1c(C(=O)N[C@H](C(=O)OCC(C)N2CCOCC2)C(C)C)ccc2c1B(O)OC2 (stereo partly drawn) [Example 6-207, 2-morpholinopropyl (1-hydroxy-7-methyl-1,3-dihydrobenzo[c][1,2]oxaborole-6-carbonyl)-L-valinate] | 0.021 to 0.999 µM | 0.00051 to 0.00999 µM
6 | CCc1c(C(=O)N[C@H](C(=O)OCc2ccccc2)C(C)C)ccc2c1B(O)OC2 [Example 6-053, Benzyl (7-ethyl-1-hydroxy-1,3-dihydrobenzo[c][1,2]oxaborole-6-carbonyl)-L-valinate] | 0.021 to 0.999 µM | < 0.0005 µM
7 | CC(C)[C@H](NC(=O)c1ccc2c(c1F)B(O)OC2)C(=O)OCc1ccc(F)cc1 [Example 6-036, 4-Fluorobenzyl (7-fluoro-1-hydroxy-1,3-dihydrobenzo[c][1,2]oxaborole-6-carbonyl)-L-valinate] | 0.021 to 0.999 µM | 0.01 to 5 µM
8 | Cc1c(C(=O)N[C@H](C(=O)OC[C@@H]2COC(C)(C)O2)C(C)C)ccc2c1B(O)OC2 [Example 6-145, ((S)-2,2-Dimethyl-1,3-dioxolan-4-yl)methyl (1-hydroxy-7-methyl-1,3-dihydrobenzo[c][1,2]oxaborole-6-carbonyl)-L-valinate] | ≤ 0.02 µM | 0.00051 to 0.00999 µM
9 | Cc1c(C(=O)N[C@H](C(=O)OCc2ccc(S(=O)(=O)N3CCN(C)CC3)cc2)C(C)C)ccc2c1B(O)OC2 [Example 6-085, 4-((4-Methylpiperazin-1-yl)sulfonyl)benzyl (1-hydroxy-7-methyl-1,3-dihydrobenzo[c][1,2]oxaborole-6-carbonyl)-L-valinate] | 0.021 to 0.999 µM | 0.00051 to 0.00999 µM
10 | Cc1c(C(=O)N[C@H](C(=O)OCc2ncc(F)cn2)C(C)C)ccc2c1B(O)OC2 [Example 6-202, (5-fluoropyrimidin-2-yl)methyl (1-hydroxy-7-methyl-1,3-dihydrobenzo[c][1,2]oxaborole-6-carbonyl)-L-valinate] | ≤ 0.02 µM | < 0.0005 µM
11 | Cc1c(C(=O)N[C@H](C(=O)OCC2COCCOC2)C(C)C)ccc2c1B(O)OC2 [Example 6-157, (1,4-Dioxepan-6-yl)methyl (1-hydroxy-7-methyl-1,3-dihydrobenzo[c][1,2]oxaborole-6-carbonyl)-L-valinate] | 0.021 to 0.999 µM | < 0.0005 µM
12 | Cc1c(C(=O)N[C@H](C(=O)OCc2ncc3ccccc3n2)C(C)C)ccc2c1B(O)OC2 [Example 6-137, Quinazolin-2-ylmethyl (1-hydroxy-7-methyl-1,3-dihydrobenzo[c][1,2]oxaborole-6-carbonyl)-L-valinate] | ≤ 0.02 µM | < 0.0005 µM
13 | Cc1c(C(=O)N[C@@H](C(=O)OCc2ccc(F)cc2)C(C)C)ccc2c1B(O)OC2 [Example 6-087, 4-Fluorobenzyl (1-hydroxy-7-methyl-1,3-dihydrobenzo[c][1,2]oxaborole-6-carbonyl)-D-valinate] | ≥ 1 µM | 0.01 to 5 µM
14 | Cc1c(C(=O)N[C@H](C(=O)O[C@H]2CCOC2)C(C)C)ccc2c1B(O)OC2 [Example 6-140, (S)-Tetrahydrofuran-3-yl (1-hydroxy-7-methyl-1,3-dihydrobenzo[c][1,2]oxaborole-6-carbonyl)-L-valinate] | 0.021 to 0.999 µM | 0.00051 to 0.00999 µM
15 | Cc1c(C(=O)N[C@H](C(=O)OCc2ccc(NS(C)(=O)=O)cc2)C(C)C)ccc2c1B(O)OC2 [Example 6-075, 4-(Methylsulfonamido)benzyl (1-hydroxy-7-methyl-1,3-dihydrobenzo[c][1,2]oxaborole-6-carbonyl)-L-valinate] | ≥ 1 µM | 0.01 to 5 µM
16 | Cc1c(C(=O)N[C@H](C(=O)OCc2ccc(S(=O)(=O)N3CCOCC3)cc2)C(C)C)ccc2c1B(O)OC2 [Example 6-086, 4-(Morpholinosulfonyl)benzyl (1-hydroxy-7-methyl-1,3-dihydrobenzo[c][1,2]oxaborole-6-carbonyl)-L-valinate] | 0.021 to 0.999 µM | < 0.0005 µM
17 | CC(C)[C@H](NC(=O)c1ccc2c(c1)B(O)OC2)C(=O)OCc1ccc(F)cc1 [Example 6-030, 4-Fluorobenzyl (1-hydroxy-1,3-dihydrobenzo[c][1,2]oxaborole-6-carbonyl)-L-valinate] | 0.021 to 0.999 µM | 0.00051 to 0.00999 µM
18 | Cc1c(C(=O)N[C@H](C(=O)OCc2ccc(S(=O)(=O)C(C)C)cc2)C(C)C)ccc2c1B(O)OC2 [Example 6-092, 4-(Isopropylsulfonyl)benzyl (1-hydroxy-7-methyl-1,3-dihydrobenzo[c][1,2]oxaborole-6-carbonyl)-L-valinate] | 0.021 to 0.999 µM | < 0.0005 µM
19 | CC(C)[C@H](NC(=O)c1ccc2c(c1C(F)F)B(O)OC2)C(=O)OCc1ccc(F)cc1 [Example 6-073, 4-Fluorobenzyl (7-(difluoromethyl)-1-hydroxy-1,3-dihydrobenzo[c][1,2]oxaborole-6-carbonyl)-L-valinate] | ≤ 0.02 µM | 0.00051 to 0.00999 µM
20 | Cc1c(C(=O)N[C@H](C(=O)OC(C)C)C(C)C)ccc2c1B(O)OC2 [Example 6-112, Isopropyl (1-hydroxy-7-methyl-1,3-dihydrobenzo[c][1,2]oxaborole-6-carbonyl)-L-valinate] | ≤ 0.02 µM | 0.00051 to 0.00999 µM
21 | Cc1c(C(=O)N[C@H](C(=O)OCc2ccc(F)c(OCCN3CCCC3)c2)C(C)C)ccc2c1B(O)OC2 [Example 6-245, 4-Fluoro-3-(2-(pyrrolidin-1-yl)ethoxy)benzyl (1-hydroxy-7-methyl-1,3-dihydrobenzo[c][1,2]oxaborole-6-carbonyl)-L-valinate] | 0.021 to 0.999 µM | 0.00051 to 0.00999 µM
22 | Cc1c(C(=O)N[C@H](C(=O)OCc2ncc[nH]2)C(C)C)ccc2c1B(O)OC2 [Example 6-143, (1H-Imidazol-2-yl)methyl (1-hydroxy-7-methyl-1,3-dihydrobenzo[c][1,2]oxaborole-6-carbonyl)-L-valinate] | ≥ 1 µM | 0.01 to 5 µM
23 | Cc1c(C(=O)NC(C(=O)OCc2ccc(F)cc2)C(C)(C)F)ccc2c1B(O)OC2 (stereo not drawn) [Example 6-091, 4-Fluorobenzyl 3-fluoro-2-(1-hydroxy-7-methyl-1,3-dihydrobenzo[c][1,2]oxaborole-6-carboxamido)-3-methylbutanoate] | ≤ 0.02 µM | < 0.0005 µM
24 | Cc1c(C(=O)N[C@H](C(=O)OCC(F)(F)F)C(C)C)ccc2c1B(O)OC2 [Example 6-151, 2,2,2-Trifluoroethyl (1-hydroxy-7-methyl-1,3-dihydrobenzo[c][1,2]oxaborole-6-carbonyl)-L-valinate] | ≤ 0.02 µM | < 0.0005 µM
25 | CC(C)[C@H](NC(=O)c1ccc2c(c1)B(O)OC2)C(=O)O[C@@H](C)c1ccccc1 [Example 6-023, (S)-1-Phenylethyl (1-hydroxy-1,3-dihydrobenzo[c][1,2]oxaborole-6-carbonyl)-L-valinate] | ≥ 1 µM | 0.01 to 5 µM
26 | CC(C)[C@H](NC(=O)c1ccc2c(c1)B(O)OC2)C(=O)OCc1ccccc1 [Example 6-005, Benzyl (1-hydroxy-1,3-dihydrobenzo[c][1,2]oxaborole-6-carbonyl)-L-valinate] | 0.021 to 0.999 µM | 0.00051 to 0.00999 µM
27 | Cc1c(C(=O)N[C@H](C(=O)OCc2cccc(OC(F)(F)F)c2)C(C)C)ccc2c1B(O)OC2 [Example 6-055, 3-Trifluoromethoxybenzyl (1-hydroxy-7-methyl-1,3-dihydrobenzo[c][1,2]oxaborole-6-carbonyl)-L-valinate] | ≤ 0.02 µM | < 0.0005 µM
28 | Cc1c(C(=O)N[C@H](C(=O)OCC2CCCCC2)C(C)C)ccc2c1B(O)OC2 [Example 6-119, Cyclohexylmethyl (1-hydroxy-7-methyl-1,3-dihydrobenzo[c][1,2]oxaborole-6-carbonyl)-L-valinate] | ≤ 0.02 µM | < 0.0005 µM
29 | Cc1c(C(=O)N[C@H](C(=O)OCc2ccc(F)cc2)C2CCCC2)ccc2c1B(O)OC2 [Example 6-060, 4-Fluorobenzyl (S)-2-cyclopentyl-2-(1-hydroxy-7-methyl-1,3-dihydrobenzo[c][1,2]oxaborole-6-carboxamido)acetate] | 0.021 to 0.999 µM | 0.00051 to 0.00999 µM
30 | Cc1c(C(=O)N[C@H](C(=O)OCCN2CCOCC2C)C(C)C)ccc2c1B(O)OC2 (stereo partly drawn) [Example 6-219, 2-(3-methylmorpholino)ethyl (1-hydroxy-7-methyl-1,3-dihydrobenzo[c][1,2]oxaborole-6-carbonyl)-L-valinate] | 0.021 to 0.999 µM | < 0.0005 µM
